Data set [1] in a line: Thin-layer chromatography (TLC) analysis of decomposition after production. In kind it is physicochemical. The conditions noted are these: 24 hours after purification; in sodium ascorbate aqueous solution (final concentration 1%). The protocol:
The crude product solution (1 µL) was analyzed by thin-layer chromatography (TLC). The sample was spotted on a thin-layer plate (silica gel 60F254), and a mixed solvent of acetonitrile/water (2/1) was used as a developing solvent. The thin-layer plate was exposed to an imaging plate (BAS IP MS 2025E, GE Healthcare) for about 15 min, and then analyzed by a bioimage analyzer (Tyhoon™ FLA-7000, Cytiva). The results are shown in Fig.2. ^211At-AAMT-OMe in the crude product solution was detected at Rf 0.80, and the radiochemical yield (RCY) was 81.3%.
Before purification, immediately after production, 3 hours after production, and 24 hours after production, ^211At-AAMT-OMe was analyzed by thin-layer chromatography (TLC) in the same manner as described above.
24 hours after production, (R)-^211At-AAMT-OMe was analyzed by thin-layer chromatography (TLC) in the same manner as described above.
24 hours after production, ^211At-AAMT-OEt was analyzed by thin-layer chromatography (TLC) in the same manner as described above.
24 hours after production, ^211At-AAMT-OPr was analyzed by thin-layer chromatography (TLC) in the same manner as described above.
24 hours after production, ^211At-AAMPhe-OMe was analyzed by thin-layer chromatography (TLC) in the same manner as described above.

The target in a further data set is T1, HEK293-hLAT1 cells (Homo sapiens, UniProt Q01650).
T1 construct: expressed in transfected cells; host or cells: HEK293
T1 sequence (Q01650 whole entry): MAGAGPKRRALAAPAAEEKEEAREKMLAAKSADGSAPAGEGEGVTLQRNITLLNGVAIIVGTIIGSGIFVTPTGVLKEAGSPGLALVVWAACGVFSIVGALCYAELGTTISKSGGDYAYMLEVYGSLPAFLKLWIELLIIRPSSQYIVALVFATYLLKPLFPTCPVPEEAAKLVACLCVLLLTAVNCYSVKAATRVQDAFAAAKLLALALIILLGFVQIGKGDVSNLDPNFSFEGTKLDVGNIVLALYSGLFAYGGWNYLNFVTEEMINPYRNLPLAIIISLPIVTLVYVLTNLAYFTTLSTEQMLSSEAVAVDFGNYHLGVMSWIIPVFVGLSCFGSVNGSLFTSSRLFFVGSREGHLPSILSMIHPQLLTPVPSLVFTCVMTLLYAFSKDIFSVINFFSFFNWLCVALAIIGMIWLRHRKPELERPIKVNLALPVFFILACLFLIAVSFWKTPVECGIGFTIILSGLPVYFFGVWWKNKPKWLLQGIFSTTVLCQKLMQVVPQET
T1 sequence (P08195 102-630 partner): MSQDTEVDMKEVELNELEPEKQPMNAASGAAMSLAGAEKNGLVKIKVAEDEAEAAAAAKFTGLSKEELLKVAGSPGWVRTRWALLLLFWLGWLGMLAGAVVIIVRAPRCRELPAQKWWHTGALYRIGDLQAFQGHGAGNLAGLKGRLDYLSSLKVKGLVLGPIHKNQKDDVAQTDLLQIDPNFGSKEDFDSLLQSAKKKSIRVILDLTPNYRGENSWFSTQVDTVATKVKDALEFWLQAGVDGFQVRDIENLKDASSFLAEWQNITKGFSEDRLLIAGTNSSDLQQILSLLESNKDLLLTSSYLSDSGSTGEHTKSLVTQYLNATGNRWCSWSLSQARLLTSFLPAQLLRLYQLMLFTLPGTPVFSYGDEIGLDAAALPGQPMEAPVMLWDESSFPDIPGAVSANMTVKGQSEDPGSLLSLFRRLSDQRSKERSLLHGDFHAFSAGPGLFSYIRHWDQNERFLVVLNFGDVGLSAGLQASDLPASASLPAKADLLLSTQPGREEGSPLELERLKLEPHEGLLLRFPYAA
In words: Cellular uptake test (using HEK293). In kind it is cell-based. The protocol: • Cells to be used: HEK293-Mock, HEK293-hLAT1, HEK293-hLAT2 (HEK293: Human Embryonic Kidney cells 293) • Culture medium to be used: E-MEM (containing 10% FBS, 1% P/S, 1% NEAA)
Two days before a test day, a cell suspension was prepared in such a manner that the concentration of predetermined cells was 1 x 10^5 cells/mL. The cell suspension was seeded in a 24-well multiculture plate at a volume of 0.5 mL per well. On the day of the test, cultures were confirmed to be subconfluent (which refers to a state where 70-80% of the well is covered in density). […]
^211At-AAMT-OMe or ^211At-AAMT was added to the prepared cells at 10 µL/well. […] The cells were lysed by adding 0.1N NaOH to obtain a lysate, and the radioactivity of the lysate was measured using a γ counter. After the radioactivity measurement, the lysate was loaded into a 96-well plate at a volume of 10 µL per well, the protein amount was measured by the BCA method, and the number of cells was corrected based on the protein amount. Absorbance was measured by MultiScanFC (Thermo Fisher). The uptake level of ^211At-AAMT-OMe or ^211At-AAMT into the cells (number of radioactivity counts/protein amount) was calculated.

Data set [2] relates to human pancreatic cancer cell line, PANC1. In words: Measurement of accumulated amounts of 211At-labeled compounds in tumors of PANC1 transplanted mice (Test Example 5). Type of data set: in vivo. The conditions noted are these: 0.1 MBq per mouse via tail vein. As for the experimental part: Radiation doses before and after the administration were measured, and a difference between them was defined as an injected dose (ID). Ten minutes and one hour after administration, the mice were anesthetized by isoflurane inhalation, the tumors were isolated by autopsy in chronological order, and their radiation doses and weights were measured using a gamma counter (2480 Wizard^2, PerkinElmer) and a semimicro scale (Shimadzu Corporation, readability 10 µg), respectively. For comparison between accumulated amounts, accumulated amounts per unit amount (% ID/g) were calculated.

Data set [3] has the same test system. The following applies: up to 21 days after administration, 1 MBq per mouse. As for the experimental part:
Tumor sizes and body weights were measured over time after the administration. The experiment was terminated 21 days after administration. It should be noted that in Fig. 21 and Fig. 22, "OMe" is ^211At-AAMT-OMe and "OEt" is ^211At-AAMT-OEt.

Data set [4] has as its system CDDP-resistant A549 (A549 CDDP-r). The experiment in a line: Cytotoxicity test on CDDP-resistant A549 (Test Example 8). The following applies: cultivation for 48 hours. As for the experimental part:
Two days before experiment, A549 and CDDP-resistant A549 (A549 CDDP-r) were each seeded in a 96-well plate at a concentration of 1 × 10^5 cells/mL. ^211At-AAMT-OMe or ^211At-AAMT adjusted to a predetermined concentration was added to A549 cells and CDDP-resistant A549 cells, respectively, and the cells were cultured (CO2 5%, 37°C). After the cultivation for 48 hours, Cell counting kit-8 (DOJINDO LABORATORIES) was added. After the addition, the cells were cultured at 37°C for 1 hour, and cell viability was measured using absorbance at 450 nm as an indicator.

The next data set has as its system A549. In words: Therapeutic test on mice subcutaneously transplanted with A549 (Test Example 9). The following applies: A549, 30 days after administration, 0.5 MBq per mouse; compared with 211At-AAMT. Type of data set: in vivo.
Data set [5] deals with CDDP-resistant A549 (A549 CDDP-r). The conditions noted are these: 30 days after administration, 0.5 MBq per mouse, compared with 211At-AAMT. As for the experimental part:
(§1) Thirty days after administration, the mice were euthanized and tumor masses were isolated. After fat tissue and the like were trimmed off, the wet weights of the isolated tumor masses were measured to make a histogram.

Data set [6] relates to Gem-resistant PANC1 (PANC1 Gem-r). The following applies: mouse, in vivo. The protocol: as §1
For data set [7], the system named is human pancreatic cancer cell line, PANC1. In words: Imaging of mice subcutaneously transplanted with PANC1 (Test Example 2). The conditions noted are these: 2 hours after administration, 0.5 MBq per mouse via tail vein.
From the text: Immunodeficient mice (Balb/c-nu/nu, 5-week-old, male) were habituated for 1 week and then subcutaneously transplanted with a human pancreatic cancer cell line (PANC1, 1 × 10^7 cells/mouse). After the transplantation, the mice were observed over time until tumor reached a size large enough for imaging (about 1000 mm^3). […] Two hours after administration, the mice were anesthetized by isoflurane inhalation, and planar images were taken using a γ camera (E-cam, Siemens).

The structures appear in SMILES notation.

For the molecule `COc1ccc(C[C@](C)(N)C(=O)O)cc1[211At]` [^211At-AAMT-OMe, (S)-3-astato(^211At)-O-methyl-α-methyltyrosine], the “decomposition (TLC)” value in [1] is listed as “no decomposition”. The “uptake level into the cells (number of radioactivity counts/protein amount)” value at HEK293-hLAT1 cells (HEK293-hLAT1 cells (CTL), 30 minutes, comparable to 211At-AAMT) is reported as “strongly taken up”. Moreover, on HEK293-hLAT1 cells (HEK293-hLAT1 cells, in the presence of BCH and AMT), the “uptake into the cells in the presence of inhibitor” value was “significantly inhibited”. Further, the tumor accumulation in data set [2] (10 minutes after administration) is given as 2.59 %ID/g; in data set [2] (1 hour after administration) it was 3.78 %ID/g. Also, in [3], the “apparent toxicity induced by administration” value was “not observed”. Also, in data set [3], the body weight entry is given as “gently increased”. Moreover, in data set [4], the “cytotoxicity (cell viability, Cell counting kit-8)” value was “more remarkable cytotoxicity”. Moreover, the “anti-tumor effect (tumor weight)” value is reported as “comparable” with A549, “higher” in data set [5] and “higher” in data set [6]. Besides, the “tumor growth inhibiting effect (tumor size)” value in data set [6] is given as “higher”. For the same molecule, the “accumulation in the tumor (planar image, γ camera)” value in data set [7] is “accumulated in the tumor sites”.

The values are drawn from patent publication EP4592274A1, “RADIOLABELED TYROSINE DERIVATIVE AND APPLICATION THEREOF” (OSAKA UNIVERSITY, priority 2022, dated 2024).
